Tests used:
in vitro = conditions: human
SmSirt2 = SmSirt2 (Schistosoma mansoni, UniProt T1VXA1); experiment: In vitro SmSirt2 inhibition assay, homogeneous fluorescence-based, ZMAL substrate; assay type: biochemical
Protocol: We first improved the synthetic method to obtain most of the BDFs analogues 1–12 (Figure ), and we tested them against recombinant SmSirt2 using a homogeneous, fluorescent-based in vitro assay with (Z)-(Ac)-Lys-7-amino-4-methylcoumarin (ZMAL) as the substrate.
The BDF4 compounds 1–12 were tested for their inhibitory activity against SmSirt2 using a fluorescence-based assay with ZMAL as the substrate. Their activity against hSirt2 has been previously reported. ,
For the screening of compounds 1–12, a homogeneous fluorescence-based assay previously described by some of us was used to determine SmSirt2 activity.

[1] = tested on: S. mansoni newly transformed schistosomula (NTS), Liberian strain; experiment: NTS (Liberian strain) in vitro viability assay; assay type: cell-based, Schistosoma mansoni; conditions: for percentage of reduction of NTS viability, 72 h: SD in brackets; for IC50: 72 h, Liberian strain
[2] = tested on: adult S. mansoni (Liberian strain) worm pairs; experiment: Adult worm (Liberian strain) in vitro viability assay; assay type: cell-based, Schistosoma mansoni; conditions: for adult worms' percentage of viability reduction, 72 h: SD in brackets; for IC50: Schistosoma mansoni, 72 h, Liberian strain
[3] = tested on: S. mansoni (Puerto Rican) worm pairs; experiment: Worm pairing of adult worm pairs (Puerto Rican strain); assay type: cell-based, Schistosoma mansoni; conditions: % of DMSO control
[4] = tested on: S. mansoni (Puerto Rican) worm pairs; experiment: Egg laying by adult worm pairs (Puerto Rican strain); assay type: cell-based, Schistosoma mansoni; conditions: % of DMSO control
[5] = tested on: histone H3 / H4 acetylation in S. mansoni (Puerto Rican strain) worm pairs; experiment: Western blot of histone and lysine acetylation in worm extracts; assay type: cell-based, Schistosoma mansoni; conditions: 10 μM, 48 h; histone-enriched fraction
[6] = tested on: adult S. mansoni (Puerto Rican strain) worm pairs; conditions: Puerto Rican strain; for lethality of adult worm pairs: 20 μM, by 72 h
hSirt2 = conditions: ref footnote b (reference number not given); cited from earlier work
[7] = tested on: adult S. mansoni (Puerto Rican strain) worm pairs; experiment: microbe, parasite or virus in culture; conditions: Schistosoma mansoni, 24 h, read-out: mortality in adult worm pairs
[8] = MTT viability assay on BJ fibroblasts; conditions: human
[9] = tested on: cytochrome c release in S. mansoni (Puerto Rican strain) worms; experiment: Western blot of cytosolic cytochrome c in worm extracts; assay type: cell-based, Schistosoma mansoni; conditions: 25 μM, 48 h (legend of Figure 5)
Protocol: To determine if the Sirt2 inhibitors trigger apoptosis through the cytochrome c pathway, we examined cytochrome c release from mitochondria.
5 Effects of selected Sirt2 inhibitors on cytosolic cytochrome c expression. Representative immunoblots of cytosolic protein fractions extracted from S. mansoni adult worm pairs are shown. The worms were treated with the indicated Sirt2 inhibitors (10 μM) for 48 h. DMSO (vehicle), TSA (1 μM, 24 h), a HDAC pan-inhibitor, and salermide (Sal 25 μM, 48 h), a Sirt1/Sirt2 inhibitor, were used as controls. The α-tubulin signal was used for normalization. Quantitation of cytochrome c relative to the vehicle-treated sample is shown.
Ten pairs of adult parasites were treated with selected Sirt inhibitors for either 24 or 48 h at partially lethal and sublethal concentrations. The concentrations of compounds were chosen based on the viability curve. Positive controls in the experiments included TSA, a pan-HDAC inhibitor, and salermide, a hSirt1/2 inhibitor, while DMSO (vehicle) served as negative control. Parasites were lysed in a 0.5% Triton PBS buffer by strokes, and the lysates were then centrifuged to collect the soluble fractions (cytosol). The insoluble fractions were extracted with 0.25 N HCl at +4 °C for 18 h, followed by neutralization with 1/10 volume of 2 N NaOH. Samples were analyzed using 15% SDS-PAGE and Western blotting. […]

schistosomula = tested on: schistosomula; set-up: method as in not given; conditions: 48 h of treatment, 10–20 μM; ref not given; cited from earlier work

SmSirt2, sequence (T1VXA1 entry or part of it): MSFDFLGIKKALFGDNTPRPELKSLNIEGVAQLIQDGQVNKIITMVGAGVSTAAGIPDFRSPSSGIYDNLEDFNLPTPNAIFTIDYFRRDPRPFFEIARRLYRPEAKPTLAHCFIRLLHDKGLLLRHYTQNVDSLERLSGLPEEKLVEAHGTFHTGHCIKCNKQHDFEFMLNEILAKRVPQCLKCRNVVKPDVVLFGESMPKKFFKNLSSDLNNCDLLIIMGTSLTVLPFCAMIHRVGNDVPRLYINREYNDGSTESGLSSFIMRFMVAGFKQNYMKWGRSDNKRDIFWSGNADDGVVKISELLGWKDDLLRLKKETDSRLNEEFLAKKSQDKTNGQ

SMILES	percentage of reduction of NTS viability, 72 h ([1]; 0.1 μM)	percentage of reduction of NTS viability, 72 h ([1]; 1 μM)	percentage of reduction of NTS viability, 72 h ([1]; 10 μM)	percentage of reduction of NTS viability, 72 h ([1]; 20 μM)	IC50 [1] [nM]	IC50 ([1]; Schistosoma mansoni) [nM]	adult worms' percentage of viability reduction, 72 h ([2]; 20 μM)	IC50 [2] [nM]	% worm pairing ([3]; 1 μM, 24 h, single experiment) [%]	% worm pairing ([3]; 1 μM, 48 h, single experiment) [%]	% worm pairing ([3]; 1 μM, 72 h, single experiment) [%]	% worm pairing ([3]; 10 μM, 24 h, SD in brackets)	% worm pairing ([3]; 10 μM, 48 h, SD in brackets)	% worm pairing ([3]; 10 μM, 72 h, SD in brackets)	% worm pairing ([3]; 20 μM, 24 h, SD in brackets)	% worm pairing ([3]; 20 μM, 48 h, SD in brackets)	% worm pairing ([3]; 20 μM, 72 h, SD in brackets)	% egg laying ([4]; 1 μM, 24 h, single experiment) [%]	% egg laying ([4]; 1 μM, 48 h, single experiment) [%]	% egg laying ([4]; 1 μM, 72 h, single experiment) [%]	also measured
CC(C)=CCC[C@]1(C)C=Cc2c(O)c3c(c(CC=C(C)C)c2O1)O[C@]12C(=C[C@@H]4C[C@H]1C(C)(C)O[C@@]2(C/C=C(/C)C(=O)O)C4=O)C3=O [GA, gambogic acid]	–	–	–	–	–	–	–	–	–	–	–	–	–	–	–	–	–	–	–	–	IC50 at 72 h (in vitro): 340 nM
O=c1nc2oc3ccc4ccccc4c3cc-2c(=O)n1Cc1ccccc1 [Compound 9, 10-Benzyl-9H-benzo[5,6]chromeno[2,3-d]pyrimidine-9,11(10H)-dione]	36 (2) %	100 (0) %	100 (0) %	100 (0) %	110	~100	61.2 (5.6) %	< 1000	100	100	100	80 (20) %	93 (11) %	100 (0) %	6 (11) %	20 (30) %	20 (30) %	98	98	126	IC50 (SmSirt2; read-out: IC50 SmSirt2, ZMAL substrate): 7300 ± 500 nM; % egg laying ([4]; 10 μM, 24 h, SD in brackets): 72 (74) %; % egg laying ([4]; 10 μM, 48 h, SD in brackets): 71 (36) %; % egg laying ([4]; 10 μM, 72 h, SD in brackets): 67 (28) %; % egg laying ([4]; 20 μM, 24 h, SD in brackets): 11 (7) %; % egg laying ([4]; 20 μM, 48 h, SD in brackets): 8 (5) %; % egg laying ([4]; 20 μM, 72 h, SD in brackets): 7 (6) %; acetylation of histone H3 (pan-acetylation) [5]: increase in acetylation of histone H3; acetylation of histone H4 (pan-acetylation) [5]: but not histone H4; lethality of adult worm pairs [6]: complete lethality; IC50 (hSirt2): 15900 ± 600 nM; mortality at 20 µM [7]: 70 to 80%; IC50 at 72 h [8]: 50600 nM
O=c1nc2oc3ccc4ccccc4c3cc-2c(=O)n1C1CCCCC1 [Compound 7, 10-Cyclohexyl-9H-benzo[5,6]chromeno[2,3-d]pyrimidine-9,11(10H)-dione]	43.8 (2.1) %	67.7 (0) %	100 (0) %	100 (0) %	210	~200	100 (0) %	1240	100	100	100	100 (0) %	100 (0) %	100 (0) %	0 (0) %	0 (0) %	6 (11) %	75	66	75	inhibition at 50 µM (SmSirt2): 24.6%; adult worms' percentage of viability reduction, 72 h ([2]; 1 μM): 23.9 (0) %; % egg laying ([4]; 10 μM, 24 h, SD in brackets): 32 (4) %; % egg laying ([4]; 10 μM, 48 h, SD in brackets): 46 (6) %; % egg laying ([4]; 10 μM, 72 h, SD in brackets): 44 (10) %; % egg laying ([4]; 20 μM, 24 h, SD in brackets): 14 (12) %; % egg laying ([4]; 20 μM, 48 h, SD in brackets): 9 (8) %; acetylation of histone H3 (pan-acetylation) [5]: increase in acetylation of histone H3; acetylation of histone H4 (pan-acetylation) [5]: but not histone H4; lethality of adult worm pairs [6]: complete lethality; IC50 (hSirt2): 58500 ± 2900 nM; mortality at 20 µM [7]: 70 to 80%; IC50 at 72 h [8]: 60000 nM
CC(C(=O)Nc1cccc(/N=C/c2c(O)ccc3ccccc23)c1)c1ccccc1 (stereo not shown) [salermide]	–	–	–	–	–	–	–	–	–	–	–	–	–	–	–	–	–	–	–	–	cytosolic cytochrome c level [9]: increased levels of cytochrome c; effect on adult worm viability ([6]; after 72 h, same conditions): did not affect adult worm viability; DNA fragmentation in schistosomula (TUNEL assay) (schistosomula): cause DNA fragmentation
